pIC50: −log10 of the molar value. Numbered stars: 1 amine (or outer) side, 2 acyl side, 3 side chain; on linkers, the order of the positions; unused ones are H or OH. Bridge positions count the residues as written; N and C are the ends. Square brackets hold non-standard residues; d marks the D form. Peptide text beside a SMILES is read from it. I, II: the chains in the order shown. Actinocin(9to1) = Cc1c2oc3c(C)ccc(C(=O)[*:1])c3nc-2c(C(=O)[*:2])c(N)c1=O; NMeV = CN[C@H](C(=O)O)C(C)C; Sar = CNCC(=O)O
Columns and labels:
[1] = system: HL-60 (ATCC CCL-240) cells; experiment: Viability and apoptosis of HL-60 cells (Trypan Blue, optical microscope); type: cell-based; settings: 24 hours; for pIC50: Homo sapiens, Trypan Blue, read-out: Viability50 (concentration that results in a viability of 50%)
Protocol: HL-60 (ATCC CCL-240) cells were cultured at 37° C. in RPMI 1640 medium (Bio Whittaker) containing 10% fetal calf serum (FCS; JRH) which had been treated at 56° C. for 30 minutes and suspended in RPMI 1640 medium at a concentration of 2.5×10^5 cells/5 ml.
10 μl each of solutions of diisobutyrylcyclopentenone, dimethoxyacetylcyclopentenone, dimethylfumarylcyclopentenone or dimethylmaleylcyclopentenone in 70% ethanol in water diluted to varying concentrations was added to 5 ml of the suspension. The mixtures were incubated at 37° C. for 24 hours in the presence of 5% Co2. 10 μl of aqueous actinomycin D (Sigma) solution (0.5 mg/ml), which is known as a reagent that induces apoptosis, was used in place of the sample and the mixture was incubated under the same conditions for confirmation.
The cultured cells were examined under an optical microscope.
Furthermore, a portion of the cells cultured as described above was stained with 0.4% Trypan Blue and examined under an optical microscope. The number of viable cells which were not stained and the number of dead cells which were stained blue were counted. The concentration of each of the samples that results in a viability of 50% (Viability50 μM) was determined.

[2] = Single oral dose toxicity; type: in vivo; settings: mouse, oral, single dosage of 100 mg/kg
Protocol: No toxicity is observed when a physiologically effective amount of the cyclopentenone derivative or an optical isomer thereof, or a salt thereof obtained according to the present invention is administered.

[3] = system: λ-carrageenan pedal edema; experiment: Carrageenan induced pedal edema; type: in vivo, Lewis rats; settings: rat, 3 hours after carrageenan
Protocol: Lewis rats (male, 9 weeks old, weighing about 250 g) were purchased from Seac Yoshitomi.
Rats were fasted from 18 hours before the start of the experiments. Dipropionylcyclopentenone, dihexanoylcyclopentenone, di-2-hexenoylcyclopentenone, diisobutyrylcyclopentenone or dibenzoylcyclopentenone dissolved in olive oil (Nacalai Tesque) was orally administered to 4 rats per group at 1 or 10 mg/10 ml/kg.
100 μl of 1% λ-carrageenan (Wako Pure Chemical Industries) suspension in saline (Otsuka Pharmaceutical) was injected into the sole of right paw of a rat 0.5 hour after the administration of test substance to induce pedal edema. The volume of the right foot of the rat was measured using an instrument for measuring pedal volume (Ugo Basile) 3 hours after the injection with carrageenan. The measurements were expressed as the rate of increase calculated based on the volume of the right foot of each rat measured before the administration with carrageenan.
FIG. 5 illustrate the relationship between the amount of cyclopentenone derivative administered and the rate of increase in edema in foot. The horizontal axis represents the dose […] and the vertical axis represents the rate of increase (%).

Molecule: COC(=O)/C=C/C(=O)OC1C=CC(=O)C1OC(=O)/C=C/C(=O)OC (stereo not drawn) [Dimethylfumarylcyclopentenone, dimethylfumarylcyclopentenone]
- pIC50 [1]: 5.54

Molecule: COCC(=O)OC1C=CC(=O)C1OC(=O)COC (stereo not drawn) [Dimethoxyacetylcyclopentenone, dimethoxyacetylcyclopentenone]
- pIC50 [1]: 4.85

Molecule: dihexanoylcyclopentenone
- Death after single oral administration [2]: no death was observed
- Suppression of edema in foot (FIG. 5) ([3]; 1 mg/kg oral): significant suppression
- Suppression of edema in foot (FIG. 5) ([3]; 10 mg/kg oral): significant suppression

Molecule: Cc1c2oc3c(C)ccc(C(=O)N[C@@H]4C(=O)N[C@H](C(C)C)C(=O)N5CCC[C@H]5C(=O)N(C)CC(=O)N(C)[C@@H](C(C)C)C(=O)O[C@@H]4C)c3nc-2c(C(=O)N[C@@H]2C(=O)N[C@H](C(C)C)C(=O)N3CCC[C@H]3C(=O)N(C)CC(=O)N(C)[C@@H](C(C)C)C(=O)O[C@@H]2C)c(N)c1=O [actinomycin D, reference compound] (I: T[dV]P[Sar][NMeV] / II: T[dV]P[Sar][NMeV]; ester I:1-I:C, II:1-II:C; linker I:N-II:N via Actinocin(9to1))
- Apoptosis-inducing / antiproliferation activity (condensation of nuclei, shrinking of cells, apoptotic bodies) ([1]; optical microscope): Condensation of nuclei, shrinking of cells and formation of apoptotic bodies were observed
